Measurements as given in the OligoGym collection.
After the bases stand the sugars from the 5' end (letter, count) and the backbone: PS all phosphorothioate, else s phosphorothioate and o phosphodiester by linkage. Methylation of C is not given here. l = locked nucleic acid (LNA); d = 2'-deoxy (DNA)

Target: SNHG14
Settings: ASO
[1] = Mouse Primary Neuronal Cell, 0.005 µM

Sequence	target mRNA inhibition (Human Neuronal Cell, 0.2 µM) [%]	target mRNA inhibition (Human Neuronal Cell, 1 µM) [%]	target mRNA inhibition (Human Neuronal Cell, 7.5 µM) [%]	further results
CCACCTAAGACCTCAA (sugars l2 d10 l4, PS)	53	60	–	–
CCTTAGTATTACAATT (sugars l4 d10 l2, PS)	58	71	–	–
CCTTTCCAATGAATCT (sugars l3 d10 l3, PS)	45	60	–	–
TTATACCTTTCTTTAACCCT (sugars ldddldddddddddddldll, PS)	–	–	57	–
AAATCTCAACTACCATTTTT (sugars llldldlddddddddddlll, PS)	–	–	34	–
GTTTATACCCTTTCCAAT (sugars l1 d12 l2 d1 l2, PS)	–	–	54	–
TACATCTCATACTTGC (sugars l4 d10 l2, PS)	–	–	–	target mRNA inhibition [1]: 97%
TTTTTTCTTACTATCTTCAA (sugars l1 d4 l1 d10 l4, PS)	–	–	55	–
CCTCAATACTCTACTT (sugars l4 d10 l2, PS)	43	54	–	–
CCATTTATTTCCATTTATTT (sugars ldldddddddddddllddll, PS)	–	–	52	–
ATTTTTTTCTTACTATCTTC (sugars lldlddddddddddddldll, PS)	–	–	50	–
GCTCCATATTTAAATCC (sugars l4 d11 l2, PS)	20	45	–	–
GTTACCTACATCTCAT (sugars l3 d10 l3, PS)	3	32	–	target mRNA inhibition (Human Neuronal Cell, 5 µM): 18%; target mRNA inhibition [1]: 93.4%
ACTGTTTATACCCTTTCC (sugars lddlddddddddddldll, PS)	–	–	62	–
TTCACCTAATAGCACCA (sugars l2 d11 l4, PS)	54	64	–	–
TATTCTTACCGTCTTT (sugars l2 d10 l4, PS)	60	68	–	–
TTCTGTATACACCATCC (sugars l1 d3 l1 d9 l3, PS)	–	–	64	–
AATTTTTTTCTTACTATCTT (sugars l1 d12 l1 d2 l4, PS)	–	–	62	–
TTTACACTTAATTATACTTC (sugars ldddlldddddddllddlll, PS)	–	–	60	–
AGCAACATTATTAACCAC (sugars lddlddddddddldllll, PS)	–	–	47	–
TTTCCATCTACTATTA (sugars l4 d10 l2, PS)	60	67	–	–
TTTATACCTTTCTTTAACCC (sugars l1 d15 l1 d1 l2, PS)	–	–	36	–

Sequence	target mRNA inhibition (Human Neuronal Cell, 0.2 µM) [%]	target mRNA inhibition (Human Neuronal Cell, 1 µM) [%]	target mRNA inhibition (Human Neuronal Cell, 7.5 µM) [%]	further results
CTTACCAATAGTTACC (sugars l4 d10 l2, PS)	45	65	–	–
CTCTGCTTATAACTTT (sugars l4 d10 l2, PS)	20	53	–	–
GCACATTCTTTCTATACCT (sugars ldldlddddddddddddll, PS)	–	–	57	–
TATTGATTCAATTCCCT (sugars ldldlddddddddldll, PS)	–	–	60	–
CTCATACTTGCTTTAAT (sugars l2 d13 l2, PS)	-18	13	–	target mRNA inhibition (Human Neuronal Cell, 5 µM): 17%; target mRNA inhibition [1]: 84.1%
AAATCTCAACTACCATTTTT (sugars llldldddddddddlldlll, PS)	–	–	-2	–
TATCTTTCCATTTATTTCCA (sugars l1 d17 l2, PS)	–	–	-7	–
TATTGATTCAATTCCCT (sugars lddldddddddddldll, PS)	–	–	51	–
TTATAGCCATTCTATCT (sugars l2 d9 l1 d3 l2, PS)	–	–	52	–
GTTACCTACATCTCATA (sugars l2 d11 l4, PS)	-4	10	–	target mRNA inhibition (Human Neuronal Cell, 5 µM): 21%; target mRNA inhibition [1]: 92%
TGTTTCCATCTACTATTA (sugars l1 d4 l1 d9 l3, PS)	–	–	61	–
TATTGATTCAATTCCC (sugars l3 d10 l3, PS)	62	68	–	–
TTGATTCAATTCCCTTA (sugars ldllddddddddlddll, PS)	–	–	62	–
GAAAATCTCAACTACCATT (sugars l2 d12 l5, PS)	–	–	49	–
CTTTTAACCAGAGTGG (sugars l4 d9 l3, PS)	–	–	65	–
CCATTTATTTCCATTTATT (sugars lddldddddddddlldlll, PS)	–	–	59	–
TACTAAACATACACATA (sugars l4 d11 l2, PS)	9	25	–	–
ACTGTTTATACCCTTTC (sugars lddldddddddldddll, PS)	–	–	53	–
CCCTTATAGTTATTAA (sugars l3 d10 l3, PS)	26	13	–	–
TTCTGTATACACCATCCC (sugars l1 d12 l1 d2 l2, PS)	–	–	53	–
AGCAACATTATTAACCACC (sugars lddldddddddddlldlll, PS)	–	–	50	–
CAGCTTTTAACCAGAGT (sugars l2 d12 l3, PS)	–	–	79	–
